Results published in patent US20260378560A1, “APPROACHES TO DESIGNING AND PERFORMING COMPRESSED BIOLOGICAL EXPERIMENTS AND SYSTEMS FOR IMPLEMENTING THE SAME” (EXVIVO LABS INC., priority 2023, published 2026).

What was measured:
MOLT-4 [1] = assay: Cell viability (CellTiter Glo), compressed perturbation pools with informed pool design, MAX-based deconvolution, MOLT-4; details: for DRS: MOLT-4, None (measured individually), informed pool design table; for DRS from MAX-based deconvolution: MOLT-4, Samples, 7 Pick 3 informed perturbation pools; for DRS, MOLT-4, MAX: compressed perturbation pools, informed pool design, MAX-based deconvolution;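 as to DRS from MAX-based deconvolution: higher DRS means a larger drug effect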
Description: (§1) Total cell viability was measured for each sample using an ATP-based luminescence assay (i.e., CellTiter Glo). Each cancer drug was then screened at multiple concentrations ranging from one nM to ten μM in order to generate a dose-response curve and calculate a DRS for each cancer cell line.
(§2) Each cancer drug was cultured with target cells individually. At the end of the screen, samples were either analyzed individually or compressed into pools for analysis. The library was compressed alphabetically into ten cohorts, each of which contained seven cancer drugs present in three out of the seven pools, as shown in Table VII. Said another way, the screening platform 210 generated a “7 pick 3” compressed library by assigning the cancer drugs among different pools. […] The library was also compressed into ten cohorts with pools designed based on information known about each cancer drug, as shown in Table VIII. After cell viability measurement and DRS calculation, the DRS of each cancer drug in the samples generated based on the pools were deconvoluted and compared to the DRS for each cancer drug measured individually.
(§3) In parallel to the exemplary sample compression screen covered in Table VII, perturbations were compressed into pools and then screened. The pools were designed using drug class as a feature with two compression rules (or simply “rules”). The first rule required that drugs from the same class be separated into different cohorts (i.e., mutually exclusive groups of pools). […] A benefit of compressing perturbations is the ability to measure additive, antagonistic, and synergistic effects between drugs in the same pool. However, these effects can negatively impact deconvolution of individual drug effects. Therefore, combinations of drugs for which evidence of clinical toxicity exists can be assigned to different pools in accordance with an informed pooling operation. As new preclinical or clinical evidence of toxic combinations becomes available, the rules implemented by the screening platform 210—and more specifically, its algorithm for compressing members of a library—can be updated accordingly.
(§4) In MAX-based deconvolution, an assumption of neutrality between the compressed perturbations is made. In other words, the perturbation with the largest effect is assumed to be masking the effects, if any, of the other perturbations in the pool. For SUM- and MAX-based deconvolution, qualitative deconvolution is first performed to rank the perturbations in each pool based on size of expected effect. Qualitative deconvolution, as described above, ranks the perturbations in a pool from largest effect size to smallest effect size. The ranking is based on the overlap of each perturbation's unique subset of pools with the highest and lowest measured pools. The perturbation with the largest effect is expected to be present in the pools with the highest measured signal or corresponding metric (e.g., DRS), while the perturbation with the smallest effect is expected to be present in the pools with the lowest measured signal or corresponding metric (e.g., DRS).
(§5) For MAX-based deconvolution, the highest ranked perturbation in the rank order is first assigned an effect size based on the pool with the lowest measured signal or corresponding metric (e.g., DRS) that it is present in. Said another way, the screening platform 210 can identify the highest ranked perturbation in the rank order and then assign an effect size based on the measured signal or corresponding metric (e.g., DRS) of the “weakest” pool in which the highest ranked perturbation is included. The screening platform 210 can repeat this step for the next highest ranked perturbation, and so on until the measurements for each pool have been assigned to one of the perturbations. The effects for the remaining perturbations can be assigned a value of zero, since it is assumed that their effect is masked by the perturbation with the largest effect in each pool.

REH [2] = assay: Cell viability (CellTiter Glo), library of cancer drugs, individual or sample compression with randomized (alphabetical) pools, REH; type: cell-based; details: REH; for DRS: None (measured individually); for DRS from deconvolution: Samples, 7 Pick 3 randomized (alphabetical) sample pools
Description: as §1, §2
(§6) In SUM-based deconvolution, an assumption of additivity is used to quantify the individual effects of each perturbation on each target. Additivity implies that each perturbation effect on each target is positively contributing to the overall effect measured for that pool. This is an accurate assumption for certain experiments, such as when targets or samples are compressed. When targets are pooled—or when samples containing different targets are pooled—the effect of each perturbation on each individual target is diluted. In other words, each perturbation has an isolated effect on a target in culture, and the sum total of the isolated effects are measured when pooled. Therefore, SUM-based deconvolution breaks down the sum total measured for a pool and assigns estimated fractional effects to each compressed perturbation or target in the pool. The screening platform 210 used SUM-based deconvolution for all target and sample compression experiments described above.

REH [3] = assay: Cell viability (CellTiter Glo), compressed perturbation pools with informed pool design, SUM-based deconvolution, REH; design: scale not given here
Description: as §1, §2
(§7) In parallel to the exemplary sample compression screen covered in Table VII, perturbations were compressed into pools and then screened. The pools were designed using drug class as a feature with two compression rules (or simply “rules”). The first rule required that drugs from the same class be separated into different cohorts (i.e., mutually exclusive groups of pools). The second rule separated PI3K pathway inhibitors from MAPK pathway inhibitors, as inhibiting these pathways in parallel is known to be synergistic but has not been clinically effective due to dose-limiting toxicities. A benefit of compressing perturbations is the ability to measure additive, antagonistic, and synergistic effects between drugs in the same pool. However, these effects can negatively impact deconvolution of individual drug effects. Therefore, combinations of drugs for which evidence of clinical toxicity exists can be assigned to different pools in accordance with an informed pooling operation. As new preclinical or clinical evidence of toxic combinations becomes available, the rules implemented by the screening platform 210—and more specifically, its algorithm for compressing members of a library—can be updated accordingly.
as §6
(§8) As mentioned above, SUM-based deconvolution uses the overlapping pool design to identify relative relationships and ranges for the individual effects of each perturbation. When the overlapping pool design is not sufficient to solve for the polynomials representing perturbation effects, an anchor perturbation can be identified by the screening platform 210 based on rank order and assigned an effect size of zero. The anchor perturbation may be the lowest ranked perturbation in the rank order. This then enables the screening platform 210 to solve for the polynomials for the remaining perturbations.

MOLT-4 [4] = assay: Cell viability (CellTiter Glo), library of cancer drugs, individual or sample compression with randomized (alphabetical) pools, MOLT-4; type: cell-based; details: for DRS: MOLT-4, None (measured individually); for DRS from deconvolution: MOLT-4, Samples, 7 Pick 3 randomized (alphabetical) sample pools
Description: as §1, §2, §6

REH [5] = assay: Cell viability (CellTiter Glo), compressed perturbation pools with informed pool design, MAX-based deconvolution, REH; details: REH; for DRS: None (measured individually), informed pool design table; for DRS from MAX-based deconvolution: Samples, 7 Pick 3 informed perturbation pools; for DRS, REH, MAX: compressed perturbation pools, informed pool design, MAX-based deconvolution;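 as to DRS from MAX-based deconvolution: higher DRS means a larger drug effect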
Description: as §1, §2, §3, §4, §5

MOLT-4 [6] = assay: Cell viability (CellTiter Glo), compressed perturbation pools with informed pool design, SUM-based deconvolution, MOLT-4; design: scale not given here
Description: as §1, §2, §7, §6, §8

Structure (SMILES)	DRS (MOLT-4 [1])	DRS from MAX-based deconvolution (MOLT-4 [1])	DRS, MOLT-4, MAX (MOLT-4 [1])	DRS (REH [2])	DRS from deconvolution (REH [2])	DRS, REH, SUM (REH [3])	DRS (MOLT-4 [4])	DRS from deconvolution (MOLT-4 [4])	DRS (REH [5])	DRS from MAX-based deconvolution (REH [5])	DRS, REH, MAX (REH [5])	DRS, MOLT-4, SUM (MOLT-4 [6])
Cc1ccc(NC(=O)c2ccc(CN3CCN(C)CC3)cc2)cc1Nc1nccc(-c2cccnc2)n1 [Imatinib]	13.99	15.14	0.00	1.78	1.90	1.81	0.88	0.89	15.29	18.48	0.00	1.34
Cc1nc(NC(=O)N2CCC[C@H]2C(N)=O)sc1-c1ccnc(C(C)(C)C(F)(F)F)c1 [Alpelisib]	0.01	0.00	0.00	0.79	0.75	1.12	1.79	1.94	0.21	0.35	3.57	0.00
COc1cc(OC)cc(N(CCNC(C)C)c2ccc3ncc(-c4cnn(C)c4)nc3c2)c1 [Erdafitinib]	0.38	4.94	3.88	4.37	4.03	0.00	3.37	3.41	0.38	0.73	0.00	1.38
CNC(=O)c1ccc(N2C(=S)N(c3cnc(C#N)c(C(F)(F)F)c3)C(=O)C23CCC3)cc1F [Apalutamide]	0.00	0.00	4.94	0.38	0.35	0.73	0.38	0.33	0.00	0.00	0.73	1.88
C#Cc1cccc(Nc2ncnc3cc(OCCOC)c(OCCOC)cc23)c1 [Erlotinib]	0.68	5.39	0.00	1.84	1.59	1.67	1.04	0.96	5.88	7.06	0.00	1.55
O=C(/C=C/c1cccc(S(=O)(=O)Nc2ccccc2)c1)NO [Belinostat]	13.42	15.55	21.41	16.20	15.81	18.09	18.70	12.21	12.12	14.23	18.94	14.77
CO[C@H]1C(=O)[C@]2(C)[C@@H](OC)C[C@H]3OC[C@@]3(OC(C)=O)[C@H]2[C@H](OC(=O)c2ccccc2)[C@]2(O)C[C@H](OC(=O)[C@H](O)[C@@H](NC(=O)OC(C)(C)C)c3ccccc3)C(C)=C1C2(C)C [Cabazitaxel]	0.01	0.00	–	29.39	29.52	–	29.89	30.06	0.01	0.00	–	–
COC(=O)N[C@@H](C)CNc1nccc(-c2cn(C(C)C)nc2-c2cc(Cl)cc(NS(C)(=O)=O)c2F)n1 [Encorafenib]	4.30	0.00	–	1.84	2.10	–	0.24	0.21	0.70	0.00	–	–
CN1CCN(c2ccc(C(=O)Nc3n[nH]c4ccc(Cc5cc(F)cc(F)c5)cc34)c(NC3CCOCC3)c2)CC1 [Entrectinib]	18.70	21.41	–	0.00	0.00	–	0.00	0.00	16.20	18.94	–	–
O=C(c1ccc(F)c(F)c1Nc1ccc(I)cc1F)N1CC(O)([C@@H]2CCCCN2)C1 [Cobimetinib]	1.60	1.60	–	0.00	0.00	–	0.00	0.00	0.00	0.00	–	–
CN1CC[C@@H](NC(=O)Nc2ccc(C#N)cc2)C[C@@H]1c1nc2ccccc2[nH]1 [Glasdegib]	0.00	0.00	–	1.63	1.45	–	0.03	0.00	0.00	0.00	–	–
C[C@H](Nc1ncnc2nc[nH]c12)c1cc2cccc(Cl)c2c(=O)n1-c1ccccc1 [Duvelisib]	5.28	5.28	–	0.00	0.00	–	0.00	0.00	2.58	3.75	–	–
FC(F)(F)c1ccc(CNc2ccc(Cc3c[nH]c4ncc(Cl)cc34)cn2)cn1 [Pexidartinib]	7.00	9.12	–	2.30	2.11	–	0.00	0.00	1.00	0.00	–	–
C=C(c1ccc(C(=O)O)cc1)c1cc2c(cc1C)C(C)(C)CCC2(C)C [Bexarotene]	4.84	5.31	–	1.00	0.00	–	7.00	0.00	4.94	5.97	–	–
